Test results from patent publication US20210236513A1, “NOVEL USES” (ZARODEX THERAPEUTICS LIMITED, priority 2018, published 2021).

How the values were obtained:
[1] = tested on: serum/plasma IgG, IgA, IgM; settings: cited from earlier work
[2] = tested on: collagen-induced arthritis; experiment: Collagen-induced arthritis (CIA) model, onset, clinical score and paw-swelling; assay type: in vivo, DBA/1 mice
From the text: Adult (age 13-15 weeks) DBA/1 male mice were purchased from Envigo (Horst, Netherlands). […] 1. […] All experiments were approved by the Clinical Medicine Animal Welfare and Ethical Review Body (AWERB) and by the UK Home Office. DBA/1 mice were immunised with bovine type II collagen in CFA and monitored daily for onset of arthritis. […] Controls received vehicle (saline) alone. Treatment of mice commenced in one experiment on day 1 after immunisation and in a second experiment on day 15 after immunisation. Clinical scores and paw-swelling were monitored for 10 days following onset of arthritis. A clinical scoring system was used as follows. Arthritis severity was scored by an experienced, non-blinded investigator as follows: 0=normal, 1=slight swelling and/or erythema, 2=pronounced swelling, 3=ankylosis. […] Data were analyzed by one-way ANOVA with Tukey's or Dunnett's multiple comparison test or two-way ANOVA with Tukey's multiple comparison test as appropriate. All calculations were made using GraphPad Prism software.

[3] = tested on: treatment-resistant schizophrenia; settings: schizophrenic patients; cited from earlier work
[4] = Michel et al., 2015; cited from earlier work
[5] = tested on: splenic B cell and T cell populations; experiment: Wild type mouse study, spleen immunophenotyping by flow cytometry
[6] = tested on: total peripheral blood B-cells from healthy donors differentiating to plasmablasts and plasma cells
serum IgG, IgA and IgM = experiment: Serum immunoglobulins in clozapine patients referred to Immunology clinic; assay type: in vivo, human
[7] = tested on: circulating total IgG, IgA, IgM and pneumococcal-specific IgG; experiment: Second observational study (interim), circulating immunoglobulins; assay type: in vivo, human; settings: interim analysis
[8] = tested on: specific antibody levels against Haemophilus B (Hib), Tetanus and Pneumococcus; design: species or system human; settings: in vivo
[9] = tested on: circulating B cell subsets; experiment: Second observational study (interim), peripheral blood B cell subsets by FACS; assay type: in vivo, human; settings: interim analysis
[10] = tested on: B220+ B cells, plasma cells, germinal centre B cells; experiment: CIA model, B cell subsets in spleen and lymph nodes by FACS; assay type: in vivo, DBA/1 mice
[11] = Wild type mouse study, body weight; assay type: in vivo, C57BL/6 mice; settings: 5 mg/kg and 10 mg/kg IP once daily; maximal by 3 days, recovering fully to baseline by day 9
[12] = tested on: T follicular helper cells (CD4+ PD1+ CXCR5+); experiment: CIA model, T follicular helper cells by FACS; assay type: in vivo, DBA/1 mice
[13] = Infection questionnaire, antibiotic courses and hospital admissions, same case control study; assay type: in vivo, human
[14] = tested on: anti-type II collagen IgG1 and IgG2a; experiment: CIA model, anti-collagen immunoglobulin by ELISA; assay type: in vivo, DBA/1 mice
[15] = tested on: bone marrow B cell subsets; experiment: Wild type mouse study, bone marrow B cell immunophenotyping by flow cytometry
[16] = tested on: IgG to Haemophilus influenza B, Pneumococcus and Tetanus; settings: human, in vivo
[17] = tested on: class switched memory B cells, plasmablasts and other B cell subsets
[18] = tested on: Immunoglobulin levels (IgG, IgA and IgM); experiment: Serum immunoglobulin levels by nephelometry, cross-sectional case control study of clozapine-treated vs clozapine-naive patients; assay type: in vivo, human
[19] = outpatients on clozapine for at least five years (Lozano et al., 2016)
[20] = six weeks treatment (Hinze-Selch et al., 1998)
[21] = clozapine-treated patients post-exclusion, n=94
[22] = number of admissions, clozapine-treated patients
[23] = 10 mg/kg clozapine IP, 21 days, FIG. 18
[24] = FIG. 3B, referred clozapine patients

Structure (SMILES): CN1CCN(C2=Nc3cc(Cl)ccc3Nc3ccccc32)CC1 [Clozapine, clozapine]
- IgA, IgG, absolute neutrophil count and white blood cell count vs control group [1, 19]: no differences were found
- Mean plasma levels of IgM vs control group [1, 19]: overall decrease
- IgA or IgM concentrations, pattern of autoantibodies [1, 20]: no significant effect
- Serum concentrations of IgG [1, 20]: significant increases
- Swelling of the first affected paw ([2]; 10 mg/kg clozapine from day 1, FIG. 27): reduced swelling of the first affected paw
- Arthritis onset ([2]; both doses of clozapine (5, 10 mg/kg) from day 1): extremely effective in delaying arthritis onset
- Overall clinical score ([2]; both doses, administered on day 1, FIG. 27): reduced overall clinical score
- Onset of arthritis post-immunisation ([2]; clozapine 5 or 10 mg/kg IP daily from day 1 or day 15, FIGS. 25 and 26): significantly effective in delaying the onset
- Incidence of CIA ([2]; most apparent when dosed just after CII immunisation, FIG. 26): reduces the incidence
- Total number of affected paws compared to vehicle control ([2]; significant with dosing at D1, FIG. 28): reduced the total number of affected paws
- Previously treatment refractive patients in whom effective [3]: approximately 60%
- CNS penetration [4]: high levels of CNS penetration
- Activated T cells (B220+TCR-β+) in spleen compared to control ([5]; FIG. 21): reduced in dose-dependent fashion
- Other splenic cell populations (B220-TCR-β-) ([5]; FIG. 21): No effect
- Percentage of splenic T cells (B220-TCR-β+) ([5]; FIG. 21): reciprocal increase
- Splenic follicular B cell subset ([5]; FIG. 22): no specific reductions
- Splenic marginal zone B cell subset ([5]; FIG. 22): no specific reductions
- Proportion of T2 B cells in the spleen ([5]; across all doses of clozapine, FIG. 22): small increase
- Percentage of splenic B cells (B220+TCR-β-) of total live splenocytes ([5]; clozapine at 5 mg/kg and 10 mg/kg, FIG. 21): significantly lower percentage
- Proportion of transitional stage 1 (T1) B cells in the spleen ([5]; including at the 2.5 mg/kg dose, FIG. 22): mildly reduced proportion
- Germinal centre cells in the spleen versus control or haloperidol ([5]; steady state, FIG. 22): no differences observed
- Direct toxicity to differentiating B-cells [6]: no direct toxicity effect
- Serum IgA after clozapine was stopped (serum IgG, IgA and IgM; one patient, after 24 months): 0.29 g/L
- Serum IgM after clozapine was stopped (serum IgG, IgA and IgM; one patient, after 24 months): 0.49 g/L
- Mean IgA (serum IgG, IgA and IgM; referred clozapine patients): 0.34 g/L
- Mean IgG (serum IgG, IgA and IgM; referred clozapine patients): 3.6 g/L
- Mean IgM (serum IgG, IgA and IgM; referred clozapine patients): 0.21 g/L
- Levels of circulating total IgG, IgA and IgM vs clozapine naive ([7]; FIG. 6A-C): Significantly reduced
- IgG antibodies against pneumococcus vs clozapine naive ([7]; FIG. 7): trend to lower
- IgM-Pneumococcus, mean (SEM in the line below) [8]: 58.5 U/L
- Overall CD19+ B cell numbers vs clozapine naive ([9]; FIG. 8A-B): not significantly different
- Naive (CD19+ CD27-) B cells as a proportion of total CD19+ B cells ([9]; FIG. 9A-C): Small increase
- Overall memory B cell pool ([9]; FIG. 10A-C): without perturbation
- IgMhi IgDlo memory B cell subpopulation ([9]; FIG. 12A-C): without perturbation
- Circulating levels of transitional B cells ([9]; FIG. 13A-C): No significant difference
- Circulating levels of marginal zone B cells ([9]; FIG. 14A-C): No significant difference
- Class-switched memory B cells (CD27+ IgM- IgD- as % B) ([9]; P=0.06 vs control, FIG. 11A-C): Strong trends to a specific reduction
- Levels of plasmablasts ([9]; P=0.07 vs control clozapine naive, FIG. 15A-C): Strong trends to reduction
- Proportion of plasma cells in spleen ([10]; 10 mg/kg clozapine given on day 1, FIG. 30): significant reduction
- Proportion of B220+ B cells in spleen ([10]; 10 mg/kg from day 1): significantly reduced
- Level of GL7 expression on follicular B cells in lymph node ([10]; all clozapine treatment groups vs vehicle, FIG. 32): significantly decreased
- Percentage of B220+ B cells in lymph nodes ([10]; all doses and time points (5 or 10 mg/kg from day 1 or day 15), FIG. 29): significantly lower percentage
- Lymph node follicular B cells (B220+IgD-Fas+GL7hi) ([10]; all doses/both time points, FIG. 31): Strikingly significant reductions
- Body weight [11]: transient fall in body weight
- Proportions of CD4+PD1+CXCR5+ T follicular helper cells in lymph node or spleen ([12]; 5 or 10 mg/kg from day 1 or day 15, FIG. 34): did not significantly affect
- Expression of PD-1 in lymph node T follicular helper cells (MFI) ([12]; all doses and time points, FIG. 35): Reduced expression of PD-1
- CXCR5 expression on T follicular helper cells (MFI) ([12]; dosed from day 1, lymph node and spleen, FIG. 36): significant reductions
- Expression of CCR7 on germinal centre resident T follicular helper cells ([12]; lymph node and spleen, FIG. 37): reduction in expression of CCR7
- Admitted to hospital with infection ([13]; clozapine group vs 0.06 in controls): 0.12 per patient year
- Antibiotic courses per year: 1-5 courses, percentage of patients [13, 21]: 33.0%
- Antibiotic courses per year: >5 courses, percentage of patients [13, 21]: 5.3%
- Antibiotic courses per year: nil courses, percentage of patients [13, 21]: 61.7%
- Antibiotic courses per year: >5 courses, percentage of patients ([13]; clozapine-treated patients post-exclusion, n=94, listed as clozapine): 5.3%
- Admission frequency in 12-month period, all cause [13, 22]: 21
- Admission frequency in 12-month period, infection-related [13, 22]: 15
- Reduction of anti-type II collagen IgG1 ([14]; 10 mg/kg from day 15, FIG. 33): reaching statistical significance
- Serum anti-type II collagen IgG2a ([14]; 5 or 10 mg/kg from day 1 or day 15, single time point, FIG. 33): no significant impact
- Levels of anti-type II collagen IgG1 ([14]; across all doses tested, FIG. 33): nominal reductions
- Pro-B cell fraction in bone marrow [15, 23]: without any change
- Proportion of pre-pro B cells in bone marrow [15, 23]: significant increase
- Percentage of immature B cells in bone marrow ([15]; FIG. 19): reduction
- Overall B cells in the bone marrow ([15]; any dose of clozapine (2.5, 5, 10 mg/kg IP, 21 days), FIG. 18): No overall reduction
- Pre-B cells in bone marrow ([15]; dose-dependent, significant vs control even at 2.5 mg/kg, FIG. 19): reduction
- Percentage of proliferating pre-B cells in bone marrow ([15]; reaching significance for the 5 mg/kg dose, FIG. 19): diminished
- Individuals failing to develop an IgG response above ≥50 mg/L [16]: 73%
- Individuals failing to mount a Haemophilus-IgG response ≥1 mcg/ml [16]: 42%
- Patients with IgG to Haemophilus influenza B (HiB) <1 mcg/ml at initial assessment [16]: 75%
- Patients with Pneumococcus-IgG <50 mg/L at initial assessment [16]: 94%
- Patients with Tetanus-IgG <0.1 IU/mL at initial assessment [16]: 38%
- Vaccine response of individual referred patient [16]: Failure to responds to
- CSMB vs healthy controls [17, 24]: significant reduction
- Marginal zone B cell numbers vs healthy control [17, 24]: no significant difference
- Total B cell numbers vs CVID and healthy controls [17, 24]: similar
- Overall lymphopenia or B cell lymphopenia ([17]; human, in vivo): no severe overall lymphopenia or B cell lymphopenia
- Concentrations of IgG, IgA and IgM vs clozapine-naive control group ([18]; human, in vivo): significantly reduced
- Effect of duration of clozapine therapy on serum IgG ([18]; p 0.014, FIG. 2, not observed in clozapine-naive patients): associated with lower serum IgG levels
